Experimental data from ChEMBL document CHEMBL1201862, “PubChem BioAssay data set” (2004).
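Step 1: Grow cells in 96-well plates. Step 2: Expose to compound for 48 hours at 5 concentrations. Step 3: Interpolate endpoints linearly; if unreached, use highest concentration. At the GI50, growth is halved.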 Activity calls are given as the source filed them. Cut-off read from the data, not from the text of the source: active = GI50 up to about 1.1 µM and inactive = higher.

Experiments:
Assay in all cases: growth of human tumour cells (NCI), 48 h
[1] = test system: HT-29
[2] = test system: HCC 2998
[3] = test system: HCT-116
[4] = test system: K562
[5] = test system: OVCAR-3
[6] = test system: SK-MEL-5
[7] = test system: SK-MEL-28
[8] = test system: CAKI-1
[9] = test system: ACHN
[10] = test system: SR
[11] = test system: RXF 393
[12] = test system: HCT-15
[13] = test system: IGROV-1
[14] = test system: SN12C
[15] = test system: DU-145
[16] = test system: UACC-257
[17] = test system: EKVX
[18] = test system: NCI-H522
[19] = test system: HOP-92
[20] = test system: NCI-H226

SMILES	GI50 [1]	GI50 [2]	GI50 [3]	GI50 [4]	GI50 [5]	GI50 [6]	GI50 [7]	GI50 [8]	GI50 [9]	GI50 [10]	GI50 [11]	GI50 [12] [µM]	GI50 [13]	GI50 [14]	GI50 [15]	GI50 [16]	GI50 [17]	GI50 [18]	GI50 [19]	GI50 [20]
C(=N\c1ccc(-c2nc3ccccc3[nH]2)cc1)/c1ccc[nH]1	78.5 µM (inactive)	29.5 µM (inactive)	50.9 µM (inactive)	41.3 µM (inactive)	69 µM (inactive)	30.3 µM (inactive)	> 100 µM (inactive)	> 100 µM (inactive)	> 100 µM (inactive)	33.1 µM (inactive)	76.2 µM (inactive)	76.6	> 100 µM (inactive)	63.2 µM (inactive)	> 100 µM (inactive)	> 100 µM (inactive)	> 100 µM (inactive)	35 µM (inactive)	> 100 µM (inactive)	–
CCc1nnc(CC)n1-n1c(Cc2ccccc2)n[nH]c1=O	> 100 µM (inactive)	> 100 µM (inactive)	> 100 µM (inactive)	> 100 µM (inactive)	> 100 µM (inactive)	> 100 µM (inactive)	> 100 µM (inactive)	–	> 100 µM (inactive)	> 100 µM (inactive)	> 100 µM (inactive)	> 100	> 100 µM (inactive)	> 100 µM (inactive)	> 100 µM (inactive)	> 100 µM (inactive)	> 100 µM (inactive)	> 100 µM (inactive)	> 100 µM (inactive)	–
Oc1nc2nnc(COc3ccc(Cl)cc3Cl)n2nc1Cc1ccccc1	> 100 µM (inactive)	–	52.5 µM (inactive)	> 100 µM (inactive)	27.5 µM (inactive)	> 100 µM (inactive)	> 100 µM (inactive)	> 100 µM (inactive)	41.8 µM (inactive)	36.7 µM (inactive)	21.5 µM (inactive)	> 100	24.2 µM (inactive)	57.1 µM (inactive)	> 100 µM (inactive)	> 100 µM (inactive)	> 100 µM (inactive)	> 100 µM (inactive)	32.7 µM (inactive)	25.1 µM (inactive)
O=C1NC(Cc2ccc(O)cc2)C(=O)NC1Cc1ccc(O)cc1 (configuration not stated)	> 100 µM (inactive)	–	> 100 µM (inactive)	> 100 µM (inactive)	> 100 µM (inactive)	> 100 µM (inactive)	> 100 µM (inactive)	> 100 µM (inactive)	> 100 µM (inactive)	> 100 µM (inactive)	> 100 µM (inactive)	> 100	> 100 µM (inactive)	27.1 µM (inactive)	24.8 µM (inactive)	> 100 µM (inactive)	> 100 µM (inactive)	> 100 µM (inactive)	> 100 µM (inactive)	> 100 µM (inactive)
CSC(=N/C=C/c1ccccc1)SC	> 100 µM (inactive)	–	> 100 µM (inactive)	72.8 µM (inactive)	51.4 µM (inactive)	–	> 100 µM (inactive)	> 100 µM (inactive)	> 100 µM (inactive)	> 100 µM (inactive)	25.2 µM (inactive)	> 100	73.6 µM (inactive)	> 100 µM (inactive)	> 100 µM (inactive)	> 100 µM (inactive)	> 100 µM (inactive)	64 µM (inactive)	> 100 µM (inactive)	> 100 µM (inactive)
CCCC1NC(=O)C(CC(C)C)NC(=O)c2cccc(n2)C(=O)NC(CC(C)C)C(=O)NC(CCC)C(=O)NC(C(=O)OC)CCCCNC1=O (configuration not stated)	30.6 µM (inactive)	11.1 µM (inactive)	34 µM (inactive)	24 µM (inactive)	41.7 µM (inactive)	> 100 µM (inactive)	25.6 µM (inactive)	> 100 µM (inactive)	–	29 µM (inactive)	31.8 µM (inactive)	> 100	31.1 µM (inactive)	34.4 µM (inactive)	> 100 µM (inactive)	54.5 µM (inactive)	20.3 µM (inactive)	–	14.6 µM (inactive)	25.6 µM (inactive)
NC(=O)C(c1ccccc1)N1OC2C(=O)N(c3cccc4ccccc34)C(=O)C2C1c1c2ccccc2c(Cl)c2ccccc12 (configuration not stated)	7.53 µM (inactive)	–	1.23 µM (inactive)	8.15 µM (inactive)	7.91 µM (inactive)	5.06 µM (inactive)	12.8 µM (inactive)	5.28 µM (inactive)	8.91 µM (inactive)	1.21 µM (inactive)	6.81 µM (inactive)	4.21	11.7 µM (inactive)	8.47 µM (inactive)	14.5 µM (inactive)	5.18 µM (inactive)	11.6 µM (inactive)	10.1 µM (inactive)	9.27 µM (inactive)	6.25 µM (inactive)
COc1cccc(C=C2N=C(C)N(n3c(-c4ccccc4)nc4ccccc4c3=O)C2=O)c1	> 100 µM (inactive)	> 100 µM (inactive)	> 100 µM (inactive)	> 100 µM (inactive)	–	> 100 µM (inactive)	> 100 µM (inactive)	> 100 µM (inactive)	> 100 µM (inactive)	64.9 µM (inactive)	–	77.1	> 100 µM (inactive)	> 100 µM (inactive)	> 100 µM (inactive)	> 100 µM (inactive)	> 100 µM (inactive)	> 100 µM (inactive)	–	> 100 µM (inactive)
